The results in this text go back to patent US8765802B2, “Kinase inhibitors, compositions thereof, and methods of use therewith” (Provid Pharmaceuticals, Inc., priority 2007, dated 2014).

The assay deals with T1, Chk2 (Homo sapiens, UniProt O96017).
T1 construct: made in house; host or cells: E. coli BL21 Star (Invitrogen)
T1 sequence (O96017 whole entry): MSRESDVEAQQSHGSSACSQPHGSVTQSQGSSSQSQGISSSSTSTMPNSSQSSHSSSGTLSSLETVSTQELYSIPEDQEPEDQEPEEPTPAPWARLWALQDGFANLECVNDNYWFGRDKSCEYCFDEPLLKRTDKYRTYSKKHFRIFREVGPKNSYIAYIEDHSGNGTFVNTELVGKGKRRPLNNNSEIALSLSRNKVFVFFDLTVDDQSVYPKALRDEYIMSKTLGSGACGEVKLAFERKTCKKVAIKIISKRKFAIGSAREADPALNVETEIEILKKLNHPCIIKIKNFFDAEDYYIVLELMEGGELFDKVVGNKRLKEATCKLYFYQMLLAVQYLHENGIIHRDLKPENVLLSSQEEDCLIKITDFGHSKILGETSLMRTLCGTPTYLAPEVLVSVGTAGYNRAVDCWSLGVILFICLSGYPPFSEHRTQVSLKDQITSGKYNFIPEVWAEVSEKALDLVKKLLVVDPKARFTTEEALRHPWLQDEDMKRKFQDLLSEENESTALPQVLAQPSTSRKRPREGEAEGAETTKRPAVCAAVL
As to the kind of experiment: Chk2 inhibitor IMAP assay (high-throughput Chk2 screening assay). It is filed as biochemical. The settings on record: IMAP fluorescence polarization assay, 10 μM ATP. As for the experimental part:
Compounds set forth in Table 1 were tested in the Chk2 inhibitor IMAP assay described herein in Example 6.84. […] The letters given for the Chk2 EC50 values in Table 1 represent the following ranges: A=<100 nM; B=100-300 nM; C=300-1000 nM; D=1-10 μM; and E>10 μM.
Compounds can be screened for Chk2 inhibitory activity using a high-throughput screening assay based in the immobilized metal ion affinity-based fluorescence polarization (IMAP) assay developed by Molecular Devices. This assay is based on the high affinity binding of phosphate by immobilized metal (MIII) coordination complexes on nanoparticles. A fluorescein-labeled peptide substrate is used as the substrate for the kinase activity of Chk2 in the assay. The IMAP binding reagent stops the kinase reaction. The binding of the binding reagent results in a change in the rate of molecular motion of the peptide and causes an increase in the fluorescence polarization value observed for the fluorescein label attached to the end of the peptide. Thus, inhibition of Chk2 would result in a decrease in fluorescence polarization compared to control.
A specific protocol for screening Compounds for Chk2 inhibitory activity follows.
A Compound is supplied at 1 mM in 0.5 μl DMSO on 384 well plates (such as Greiner or Corning). After thawing, 5 μl DMSO is added to the drug plate. The drug plate is then incubated for 10 minutes to solubilize the Compound. An additional 19.5 μl of reaction buffer (10× stock prepared using 100 mM Tris-HCl, 100 mM MgCl2, 1% BSA, pH 7.2, stored at 4° C.)+1 mM DDT is added to bring the Compound to 4× final concentration. A positive control is also prepared at 4× final concentration. The following control wells are used: less enzyme control (all reagents except enzyme; 5 μl/well), less Compound control (all reagents except Compound; 5 μl/well), positive control (all reagents plus staurosporine at a final concentration of 5 μM; 5 μl/well).
Reagents are then added in the following order to give the following final concentration: 2.5 μl ATP/Chk2tide (Molecular Devices) (10 μM/100 nM final concentration), 1.25 μl Compound (5 μM final concentration inf 5.5% DMSO), and 1.25 μl Chk2 (1:500, 2.4 μg/mL final concentration).
Plates are covered and incubated at room temperature for 60 minutes.
IMAP binding reagent (Molecular Devices) is diluted 1:400 into binding buffer (Molecular Devices). 15 μl of this solution is then added to all wells and the plates are covered and incubated for 30 minutes.
Plates are read using a Tecan Ultra under the fluorescence polarization mode. Gain is set to the less enzyme and less Compound wells for each plate. Excitation 485 nm, emmission 535 nm, Z position 12519 and flashes 5 are used as settings. Raw data from the Tecan reader is imported into an access database for analysis.
For `C/C(=N\NC(=N)N)c1ccc(NC(=O)Nc2ccc(/C(=N/NC(=N)N)c3ccccc3)cc2)cc1` [Compound 55], the EC50 was > 10000 nM. The value for `COC(=O)c1ccc(NC(=O)Nc2ccc(/C(C)=N/NC(=N)N)cc2)cc1` [Compound 56] was 1000 to 10000 nM; that for `C/C(=N\NC(=N)N)c1ccc(NC(=O)Nc2ccc(Cl)cc2)cc1` [Compound 57] was 1000 to 10000 nM; that for `C/C(=N\NC(=N)N)c1ccc(NC(=O)c2cc3ccccc3cn2)cc1` [Compound 58] was 1000 to 10000 nM. With `C/C(=N/NC(=N)N)c1ccc(NC(=O)Nc2ccc(/C(C)=N/NC(=N)N)cc2)c2ccccc12` [Compound 60], the half-maximal effective concentration (EC50) fell in the range of 1000 to 10000 nM. The value for `C/C(=N/NC(=N)N)c1ccc(NC(=O)Nc2ccc(/C(C)=N/NC(=N)N)cc2)cc1C` [Compound 61] was > 10000 nM. Consider `CC(=NNC(=N)N)c1ccc(NC(=O)Nc2ccc(C(C)CNC(=N)N)cc2)cc1` (stereo not shown) [Compound 62], for which the EC50 was > 10000 nM. As for `CSC(=N)N/N=C(\C)c1ccc(NC(=O)Nc2ccc(/C(C)=N/NC(=N)SC)cc2)cc1` [Compound 63], the EC50 was 1000 to 10000 nM. For the compound `CSC(=N)N/N=C(\C)c1ccc(NC(=O)Nc2ccc(C(C)=O)cc2)cc1` [Compound 64], the EC50 is > 10000 nM.

For the compound `C/C(=N\N/C(=N\N)NN)c1ccc(NC(=O)Nc2ccc(/C(C)=N/N/C(=N\N)NN)cc2)cc1` [Compound 65], the EC50 was in the range of 100 to 300 nM. `CC(=O)c1ccc(NC(=O)Nc2ccc(/C(C)=N/NC3=NCCN3)cc2)cc1` [Compound 66]: the EC50 lay within 100 to 300 nM. In the case of `C/C(=N\NC(=N)N)c1ccc(NC(=O)c2cc3cc(Cl)ccc3[nH]2)cc1` [Compound 67], the EC50 is 1000 to 10000 nM. The value for `C/C(=N\NC(=N)N)c1ccc(NC(=O)c2cc3cccc(/C(C)=N/NC(=N)N)c3[nH]2)cc1` [Compound 68] was 1000 to 10000 nM. The value for `COc1cc([N+](=O)[O-])c2[nH]c(C(=O)Nc3ccc(/C(C)=N/NC(=N)N)cc3)cc2c1` [Compound 69] was < 100 nM. In the case of `CC(=O)c1ccc2[nH]c(C(=O)Nc3ccc(/C(C)=N/NC(=N)N)cc3)cc2c1` [Compound 71] it was < 100 nM. Compound `CC(=O)c1ccc(NC(=O)c2cc3cc(/C(C)=N/NC(=N)N)ccc3[nH]2)cc1` [Compound 72] registered an EC50 of 300 to 1000 nM. In the case of `COc1cc2cc(C(=O)Nc3ccc(/C(C)=N/NC(=N)N)cc3)[nH]c2cc1OC` [Compound 73] it was 300 to 1000 nM; in that of `COc1ccc2cc(C(=O)Nc3ccc(/C(C)=N/NC(=N)N)cc3)[nH]c2c1` [Compound 74], 300 to 1000 nM. `COc1cccc2cc(C(=O)Nc3ccc(C(C)=NNC(=N)N)cc3)[nH]c12` [Compound 75] registered an EC50 of 1000 to 10000 nM.

As for `CC(=O)Nc1cccc2cc(C(=O)Nc3ccc(/C(C)=N/NC(=N)N)cc3)[nH]c12` [Compound 76], the EC50 is 300 to 1000 nM. In the case of `C/C(=N\NC(=N)N)c1ccc(NC(=O)c2cc3cccc(N)c3[nH]2)cc1` [Compound 77] it was 1000 to 10000 nM.

The compound `COc1ccc2oc(C(=O)Nc3ccc(/C(C)=N/NC(=N)N)cc3)cc2c1` [Compound 78] registered an EC50 of 100 to 300 nM. Turning to `C/C(=N\NC(=N)N)c1ccc(NC(=O)c2ccc3c(c2)CCC/C3=N\NC(=N)N)cc1` [Compound 79], the EC50 was 1000 to 10000 nM. In the case of `C/C(=N\NC(=N)N)c1ccc2[nH]c(C(=O)Nc3ccc4[nH]ccc4c3)cc2c1` [Compound 80] it was 300 to 1000 nM; in that of `C/C(=N\NC(=N)N)c1ccc2[nH]c(C(=O)Nc3ccc4cc[nH]c4c3)cc2c1` [Compound 81], 300 to 1000 nM. `COc1ccc2nc(C(=O)Nc3ccc(/C(C)=N/NC(=N)N)cc3)sc2c1` [Compound 82] showed an EC50 of 1000 to 10000 nM. In turn, `C/C(=N\NC(=N)N)c1ccc(NC(=O)c2cc3ccc(N)cc3[nH]2)cc1` [Compound 83] gave an EC50 of 1000 to 10000 nM. The value for `C/C(=N\NC(=N)N)c1ccc(NC(=O)c2cc3cccc([N+](=O)[O-])c3[nH]2)cc1C` [Compound 84] was 1000 to 10000 nM; that for `C/C(=N\NC(=N)N)c1ccc(NC(=O)c2cc3cccc(C(F)(F)F)c3[nH]2)cc1` [Compound 85] was > 10000 nM; that for `N=C(N)N/N=C1\CCCc2cc(NC(=O)c3cc4cccc([N+](=O)[O-])c4[nH]3)ccc21` [Compound 86] was < 100 nM. With `C/C(=N\NC(=N)N)c1ccc(NC(=O)c2cc3cc(F)ccc3[nH]2)cc1` [Compound 87], the EC50 is 1000 to 10000 nM. In turn, `CC(=O)Nc1ccc2cc(C(=O)Nc3ccc(/C(C)=N/NC(=N)N)cc3)[nH]c2c1` [Compound 88] gave an EC50 of 300 to 1000 nM. For the compound `C/C(=N\NC(=N)N)c1ccc(NC(=O)c2cc3ccc(S(C)(=O)=O)cc3[nH]2)cc1` [Compound 89], the EC50 fell in the range of 300 to 1000 nM.

On to `CCCOc1ccc2cc(C(=O)Nc3ccc(/C(C)=N/NC(=N)N)cc3)[nH]c2c1` [Compound 90], for which the EC50 lay in the range of 1000 to 10000 nM.

Compound `CSc1ccc2cc(C(=O)Nc3ccc(/C(C)=N/NC(=N)N)cc3)[nH]c2c1` [Compound 91] registered an EC50 of 300 to 1000 nM. The value for `CCNc1ccc2cc(C(=O)Nc3ccc(/C(C)=N/NC(=N)N)cc3)[nH]c2c1` [Compound 92] was 300 to 1000 nM; that for `C/C(=N\NC(=N)N)c1ccc(NC(=O)c2cc3ccc(C)cc3[nH]2)cc1` [Compound 93] was 300 to 1000 nM; that for `C/C(=N\NC(=N)N)c1ccc(NC(=O)c2cc3ccc(Cl)cc3[nH]2)cc1` [Compound 94] was 300 to 1000 nM.

`C/C(=N\NC(=N)N)c1ccc(NC(=O)c2cc3cccc(NS(N)(=O)=O)c3[nH]2)cc1` [Compound 95] showed an EC50 of 1000 to 10000 nM. For `N=C(N)N/N=C1\CCc2cc(NC(=O)c3cc4cccc([N+](=O)[O-])c4[nH]3)ccc21` [Compound 96], the EC50 fell in the range of 1000 to 10000 nM.

`C/C(=N\NC(=N)N)c1ccc(NC(=O)c2cc3c(C)cccc3[nH]2)cc1` [Compound 97]: the concentration for a half-maximal effect (EC50) lay within 1000 to 10000 nM. The value for `COc1cc2cc(C(=O)Nc3ccc(/C(C)=N/NC(=N)N)cc3)[nH]c2cc1NC(C)=O` [Compound 98] was 1000 to 10000 nM; that for `COc1cc2cc(C(=O)Nc3ccc(/C(C)=N/NC(=N)N)cc3)[nH]c2cc1N` [Compound 99] was 300 to 1000 nM; that for `C/C(=N\NC(=N)N)c1ccc(NC(=O)c2nc3ccccc3[nH]2)cc1` [Compound 100] was > 10000 nM.

On to `C/C(=N\NC(=N)N)c1ccc2[nH]c(C(=O)Nc3ccc4ncccc4c3)cc2c1` [Compound 101], for which the EC50 was < 100 nM. With `C/C(=N\NC(=N)N)c1ccc2[nH]c(C(=O)Nc3cc(C)ccn3)cc2c1` [Compound 102], the EC50 lay within 1000 to 10000 nM. The value for `C/C(=N\NC(=N)N)c1ccc2[nH]c(C(=O)Nc3ccc(C)cn3)cc2c1` [Compound 103] was 1000 to 10000 nM; that for `C/C(=N\NC(=N)N)c1ccc2[nH]c(C(=O)Nc3ccccn3)cc2c1` [Compound 104] was > 10000 nM; that for `COc1ccc2[nH]c(C(=O)Nc3ccc4c(c3)CCC/C4=N\NC(=N)N)cc2c1` [Compound 105] was 300 to 1000 nM.

For the compound `C/C(=N\NC(=N)N)c1ccc(NC(=O)c2cn3ccccc3n2)cc1` [Compound 106], the EC50 lay within 1000 to 10000 nM. In the case of `C/C(=N\NC(=N)N)c1ccc(NC(=O)c2cc3c(ccc4ccccc43)[nH]2)cc1` [Compound 107] it was 1000 to 10000 nM.

As to `C/C(=N\NC(=N)N)c1ccc2[nH]c(C(=O)Nc3cccc4[nH]ccc34)cc2c1` [Compound 108], the EC50 fell in the range of 1000 to 10000 nM.
